{
  "source": "paper PMC6407913",
  "about": "“DREADD Agonist 21 Is an Effective Agonist for Muscarinic-Based DREADDs in Vitro and in Vivo” (ACS Pharmacology & Translational Science, 2018)",
  "key": {"[1]": {"target": "BZP", "assay": "NIMH PDSP radioligand binding, membranes", "method": "(§1) Radioligand binding assays with membrane preparations to determine binding affinity were carried out as outlined before[540] and by the National Institute of Mental Health’s Psychoactive Drug Screening Program (NIMH PDSP) (https://pdsp.unc.edu/), Contract # HHSN-271–2013–00017-C. The NIMH PDSP is Directed by B.L.R. at the University of North Carolina at Chapel Hill, Chapel Hill, NC, and Project Officer Jamie Driscoll at NIMH, Bethesda, MD."}, "[2]": {"target": "D5 (Homo sapiens, UniProt P21918)", "sequence (P21918 whole entry)": "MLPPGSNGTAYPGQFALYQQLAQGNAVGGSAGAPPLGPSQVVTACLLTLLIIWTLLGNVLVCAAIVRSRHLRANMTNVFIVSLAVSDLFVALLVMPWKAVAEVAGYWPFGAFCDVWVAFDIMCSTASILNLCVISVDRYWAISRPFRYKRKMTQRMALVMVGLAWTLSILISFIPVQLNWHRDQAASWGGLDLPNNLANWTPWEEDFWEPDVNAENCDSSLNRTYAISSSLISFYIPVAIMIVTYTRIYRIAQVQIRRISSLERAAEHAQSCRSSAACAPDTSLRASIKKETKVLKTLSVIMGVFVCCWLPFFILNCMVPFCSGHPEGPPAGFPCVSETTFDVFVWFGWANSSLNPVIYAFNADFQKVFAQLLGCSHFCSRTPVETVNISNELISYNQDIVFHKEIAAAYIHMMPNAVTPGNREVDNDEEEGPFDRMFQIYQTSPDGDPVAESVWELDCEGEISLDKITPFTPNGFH", "assay": "NIMH PDSP radioligand binding, membranes", "method": "as §1"}, "[3]": {"target": "T1, Alpha2C (Homo sapiens, UniProt P18825)", "T1 construct": "NIMH PDSP", "assay": "NIMH PDSP radioligand binding, membranes", "method": "as §1"}, "[4]": {"target": "T2, Alpha1A (Homo sapiens, UniProt P35348)", "T2 construct": "NIMH PDSP", "T2 sequence (P35348 1-466)": "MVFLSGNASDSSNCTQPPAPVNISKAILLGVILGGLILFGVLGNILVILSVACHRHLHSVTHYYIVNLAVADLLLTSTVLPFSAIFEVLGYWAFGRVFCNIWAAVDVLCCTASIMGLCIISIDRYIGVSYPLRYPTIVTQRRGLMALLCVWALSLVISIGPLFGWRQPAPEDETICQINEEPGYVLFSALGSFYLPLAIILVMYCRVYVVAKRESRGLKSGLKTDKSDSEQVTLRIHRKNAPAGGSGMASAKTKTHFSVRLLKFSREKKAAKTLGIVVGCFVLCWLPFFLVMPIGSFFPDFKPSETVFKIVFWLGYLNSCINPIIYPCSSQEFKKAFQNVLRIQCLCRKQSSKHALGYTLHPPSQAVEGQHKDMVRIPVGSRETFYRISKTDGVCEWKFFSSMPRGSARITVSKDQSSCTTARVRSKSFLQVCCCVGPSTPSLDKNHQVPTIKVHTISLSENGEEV", "assay": "NIMH PDSP radioligand binding, membranes", "method": "as §1"}, "[5]": {"target": "M3 (Homo sapiens, UniProt P20309)", "sequence (P20309 whole entry)": "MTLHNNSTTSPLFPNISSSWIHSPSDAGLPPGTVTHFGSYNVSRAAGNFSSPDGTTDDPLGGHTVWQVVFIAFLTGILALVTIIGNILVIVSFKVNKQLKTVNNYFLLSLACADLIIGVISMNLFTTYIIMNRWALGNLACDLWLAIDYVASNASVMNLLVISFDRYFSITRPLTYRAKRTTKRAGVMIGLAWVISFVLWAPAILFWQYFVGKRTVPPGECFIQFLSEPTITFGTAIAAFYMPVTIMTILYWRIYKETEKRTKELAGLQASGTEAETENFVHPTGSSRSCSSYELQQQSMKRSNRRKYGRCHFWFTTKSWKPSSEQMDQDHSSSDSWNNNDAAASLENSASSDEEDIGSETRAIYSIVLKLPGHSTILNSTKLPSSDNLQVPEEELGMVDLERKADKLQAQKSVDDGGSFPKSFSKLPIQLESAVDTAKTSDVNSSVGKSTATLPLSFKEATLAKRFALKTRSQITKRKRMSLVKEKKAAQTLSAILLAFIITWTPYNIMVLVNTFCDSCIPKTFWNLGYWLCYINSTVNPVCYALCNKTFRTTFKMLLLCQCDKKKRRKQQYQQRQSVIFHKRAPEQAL", "assay": "NIMH PDSP radioligand binding, membranes", "method": "as §1"}, "[6]": {"target": "T3, 5-HT1A (Homo sapiens, UniProt P08908)", "T3 construct": "NIMH PDSP", "assay": "NIMH PDSP radioligand binding, membranes", "method": "as §1"}, "[7]": {"target": "T4, 5-HT5A (Homo sapiens, UniProt P47898)", "T4 construct": "NIMH PDSP", "assay": "NIMH PDSP radioligand binding, membranes", "method": "as §1"}, "[8]": {"target": "D4 (Homo sapiens, UniProt P21917)", "sequence (P21917 whole entry)": "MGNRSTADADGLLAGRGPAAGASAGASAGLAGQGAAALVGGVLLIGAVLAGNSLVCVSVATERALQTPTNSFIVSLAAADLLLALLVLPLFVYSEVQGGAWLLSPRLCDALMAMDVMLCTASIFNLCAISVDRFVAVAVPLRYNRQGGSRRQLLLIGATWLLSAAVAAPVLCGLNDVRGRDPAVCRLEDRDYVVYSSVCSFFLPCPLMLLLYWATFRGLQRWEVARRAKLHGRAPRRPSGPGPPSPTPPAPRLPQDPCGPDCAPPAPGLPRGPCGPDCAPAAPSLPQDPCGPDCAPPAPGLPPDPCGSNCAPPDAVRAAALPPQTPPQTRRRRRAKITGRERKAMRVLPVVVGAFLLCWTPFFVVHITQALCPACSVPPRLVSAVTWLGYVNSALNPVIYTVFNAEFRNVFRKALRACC", "assay": "NIMH PDSP radioligand binding, membranes", "method": "as §1"}, "[9]": {"target": "T5, 5-HT6 (Homo sapiens, UniProt P50406)", "T5 construct": "NIMH PDSP", "assay": "NIMH PDSP radioligand binding, membranes", "method": "as §1"}, "[10]": {"target": "T6, hM1 (Homo sapiens, UniProt P11229)", "T6 sequence (P11229 1-460)": "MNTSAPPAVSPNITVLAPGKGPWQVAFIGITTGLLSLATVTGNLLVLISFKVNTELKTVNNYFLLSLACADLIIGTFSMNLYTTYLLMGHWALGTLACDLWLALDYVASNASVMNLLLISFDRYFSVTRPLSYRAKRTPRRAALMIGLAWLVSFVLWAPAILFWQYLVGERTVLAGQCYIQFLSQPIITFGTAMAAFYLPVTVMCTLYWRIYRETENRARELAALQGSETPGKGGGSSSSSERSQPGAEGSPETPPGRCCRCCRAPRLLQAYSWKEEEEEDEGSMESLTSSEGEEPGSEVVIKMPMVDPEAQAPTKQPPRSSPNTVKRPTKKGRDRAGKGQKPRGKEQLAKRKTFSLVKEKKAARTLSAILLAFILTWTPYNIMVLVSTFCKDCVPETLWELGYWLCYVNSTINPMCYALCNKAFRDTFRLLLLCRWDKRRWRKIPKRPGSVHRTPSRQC", "assay": "pERK assay, antagonist mode (shift of ACh curve)", "format": "cell-based", "conditions": "hM1, CHO cells", "excerpt": "In the absence of C21 ([B] = 0), this equation becomes the standard four-parameter logistic equation for fitting agonist concentration–response data."}, "[11]": {"target": "T7, hM4Di (Homo sapiens, UniProt P08173, A203G/Y113C)", "T7 sequence (P08173 1-479 Y113C/A203G)": "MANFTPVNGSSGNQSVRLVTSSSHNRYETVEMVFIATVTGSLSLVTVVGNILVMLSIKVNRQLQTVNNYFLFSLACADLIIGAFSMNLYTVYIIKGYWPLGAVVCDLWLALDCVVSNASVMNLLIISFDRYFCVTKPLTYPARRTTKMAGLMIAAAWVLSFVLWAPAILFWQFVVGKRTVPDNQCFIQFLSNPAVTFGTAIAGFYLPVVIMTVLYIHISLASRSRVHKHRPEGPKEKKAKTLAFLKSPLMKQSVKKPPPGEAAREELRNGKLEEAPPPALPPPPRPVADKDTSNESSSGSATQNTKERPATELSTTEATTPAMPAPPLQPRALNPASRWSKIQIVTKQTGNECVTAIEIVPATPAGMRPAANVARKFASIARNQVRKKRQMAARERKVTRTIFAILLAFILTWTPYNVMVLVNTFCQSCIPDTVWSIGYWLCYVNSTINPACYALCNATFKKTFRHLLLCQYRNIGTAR", "assay": "ERK1/2 phosphorylation (pERK1/2) assay"}, "[12]": {"assay": "brain and plasma exposure after i.p. administration", "format": "in vivo, mice"}, "[13]": {"target": "T8, 318 nonolfactory human GPCRs (Homo sapiens, UniProt P33032)", "T8 construct": "expressed in transfected cells; host or cells: HTLA cells, transient", "T8 sequence (P33032 whole entry)": "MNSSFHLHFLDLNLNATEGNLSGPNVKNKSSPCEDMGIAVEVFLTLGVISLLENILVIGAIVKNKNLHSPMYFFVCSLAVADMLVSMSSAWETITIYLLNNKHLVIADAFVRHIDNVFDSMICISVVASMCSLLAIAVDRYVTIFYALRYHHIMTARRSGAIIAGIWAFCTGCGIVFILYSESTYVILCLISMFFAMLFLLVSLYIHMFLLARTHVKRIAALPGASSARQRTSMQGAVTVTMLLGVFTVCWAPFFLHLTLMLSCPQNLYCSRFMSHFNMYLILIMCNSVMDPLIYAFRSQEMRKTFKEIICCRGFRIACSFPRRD", "format": "cell-based", "conditions": "MC5R; C21 5 µM"}, "[14]": {"target": "T9, 318 nonolfactory human GPCRs (Homo sapiens, UniProt P32245)", "T9 construct": "expressed in transfected cells; host or cells: HTLA cells, transient", "T9 sequence (P32245 whole entry)": "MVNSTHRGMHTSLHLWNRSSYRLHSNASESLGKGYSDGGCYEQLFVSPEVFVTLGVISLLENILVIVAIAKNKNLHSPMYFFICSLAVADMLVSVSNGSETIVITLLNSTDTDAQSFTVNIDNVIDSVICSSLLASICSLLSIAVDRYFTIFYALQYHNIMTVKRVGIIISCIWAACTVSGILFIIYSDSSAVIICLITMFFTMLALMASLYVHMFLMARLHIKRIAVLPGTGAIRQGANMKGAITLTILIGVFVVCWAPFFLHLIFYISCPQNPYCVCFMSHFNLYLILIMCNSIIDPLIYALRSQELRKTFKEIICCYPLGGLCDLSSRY", "format": "cell-based", "conditions": "MC4R; C21 5 µM"}, "[15]": {"target": "T10, 318 nonolfactory human GPCRs (Homo sapiens, UniProt Q96P68)", "T10 construct": "expressed in transfected cells; host or cells: HTLA cells, transient", "format": "cell-based", "conditions": "OXGR1; C21 5 µM"}, "[16]": {"target": "318 nonolfactory human GPCRs (Homo sapiens, UniProt Q8TDS4)", "sequence (Q8TDS4 whole entry)": "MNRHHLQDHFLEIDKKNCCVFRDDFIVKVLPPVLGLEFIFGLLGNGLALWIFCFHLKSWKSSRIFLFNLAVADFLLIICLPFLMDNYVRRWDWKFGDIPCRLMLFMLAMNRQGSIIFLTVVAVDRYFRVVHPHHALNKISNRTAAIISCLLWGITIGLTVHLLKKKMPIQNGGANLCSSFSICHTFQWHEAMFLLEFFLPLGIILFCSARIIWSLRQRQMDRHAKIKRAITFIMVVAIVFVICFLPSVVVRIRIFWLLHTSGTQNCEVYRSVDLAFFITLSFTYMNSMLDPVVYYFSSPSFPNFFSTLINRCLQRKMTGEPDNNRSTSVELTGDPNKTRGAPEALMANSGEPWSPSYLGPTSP", "format": "cell-based", "conditions": "HCA2; C21 5 µM"}, "[17]": {"conditions": "read-out: Ki #1-#5 (individual assays)"}, "[18]": {"conditions": "i.p. 0.1, 1 and 10 mg/kg, 30 min after administration"}},
  "note": "Values joined by “and” are separate entries in the source; they are usually repeats but may differ in a detail not shown here. Equal values may be shown once. Read-outs that look alike come from different tables or passages of the source.",
  "data": [
    {"smiles": "c1ccc2c(c1)N=C(N1CCNCC1)c1ccccc1N2", "note": "[C21, 11-(1-piperazinyl)-5H-dibenzo[b,e][1,4]diazepine]", "values": [
      {"measurement": "log Ki (individual assays)", "setting": "[1]", "result": "5.27 and 5.61 and 5.12 and 5.10 and 5.33"},
      {"measurement": "pKi (mean)", "setting": "[1]", "result": 5.29},
      {"measurement": "Ki", "setting": "[1]; read-out: Ki", "result": 5180, "unit": "nM"},
      {"measurement": "Ki", "setting": "[1]; [17]", "result": "4720 nM and 5310 nM and 2440 nM and 7610 nM and 7980 nM"},
      {"measurement": "Ki", "setting": "[2]; read-out: Ki", "result": 2900, "unit": "nM"},
      {"measurement": "Ki", "setting": "[2]; [17]", "result": "4110 nM and 1650 nM and 3620 nM"},
      {"measurement": "Ki", "setting": "[3]; read-out: Ki", "result": 1690, "unit": "nM"},
      {"measurement": "Ki", "setting": "[3]; [17]", "result": "1860 nM and 936 nM and 2770 nM"},
      {"measurement": "log Ki (individual assays)", "setting": "[4]", "result": "<5"},
      {"measurement": "Ki", "setting": "[4]; read-out: Ki", "result": "> 10000", "unit": "nM"},
      {"measurement": "Ki", "setting": "[4]; [17]", "result": "> 10000", "unit": "nM"},
      {"measurement": "Ki", "setting": "[5]; read-out: Ki", "result": 270, "unit": "nM"},
      {"measurement": "Ki", "setting": "[5]; [17]", "result": "144 nM and 485 nM and 281 nM"},
      {"measurement": "Ki", "setting": "[6]; read-out: Ki", "result": 80.9, "unit": "nM"},
      {"measurement": "Ki", "setting": "[6]; [17]", "result": "64.5 nM and 144 nM and 57 nM"},
      {"measurement": "Ki", "setting": "[7]; read-out: Ki", "result": 1910, "unit": "nM"},
      {"measurement": "Ki", "setting": "[7]; [17]", "result": "3300 nM and 1400 nM and 2020 nM and 1430 nM"},
      {"measurement": "Ki", "setting": "[8]; read-out: Ki", "result": 2050, "unit": "nM"},
      {"measurement": "Ki", "setting": "[8]; [17]", "result": "1380 nM and 896 nM and 4050 nM and 3570 nM"},
      {"measurement": "Ki", "setting": "[9]; read-out: Ki", "result": 266, "unit": "nM"},
      {"measurement": "Ki", "setting": "[9]; [17]", "result": "421 nM and 193 nM and 232 nM"},
      {"measurement": "antagonist activity (shift of acetylcholine curve, pERK)", "setting": "[10]", "result": "weak functional antagonism"},
      {"measurement": "EC50", "setting": "[11]", "result": 17, "unit": "nM"},
      {"measurement": "effective free concentration at the peak, brain", "setting": "[12]; 5 mg/kg i.p.", "result": 28, "unit": "nM"},
      {"measurement": "effective free concentration at the peak, plasma", "setting": "[12]; 5 mg/kg i.p.", "result": "~54", "unit": "nM"},
      {"measurement": "brain level reached", "setting": "[12]; 5 mg/kg i.p., time course", "result": "579 ng/mL and 2 μM"},
      {"measurement": "peak plasma level", "setting": "[12]; 5 mg/kg i.p., time course", "result": "1150 ng/mL and 4.12 μM"},
      {"measurement": "calculated free brain concentration", "setting": "[12]; dose 0.3 mg/kg, mice", "result": "~1.7", "unit": "nM"},
      {"measurement": "calculated free concentration", "setting": "[12]; dose 3 mg/kg, mice", "result": "~17", "unit": "nM"},
      {"measurement": "brain and plasma levels", "setting": "[12]; [18]", "result": "measurable brain and plasma levels"},
      {"measurement": "metabolism to clozapine", "setting": "[12]; [18]", "result": "no evidence of metabolism to clozapine"},
      {"measurement": "FOLD OVER BASAL", "setting": "[13]", "result": "1.2 fold and 0.9 fold and 1.3 fold and 1 fold"},
      {"measurement": "FOLD OVER BASAL", "setting": "[14]", "result": "1.2 fold and 0.6 fold"},
      {"measurement": "FOLD OVER BASAL", "setting": "[15]", "result": "0.7 fold and 0.6 fold and 1.2 fold"},
      {"measurement": "FOLD OVER BASAL", "setting": "[16]", "result": "1.2 fold and 1.1 fold and 1.3 fold and 1.4 fold"}
    ]}
  ]
}
